# Assay results taken from patent US12226424B2, “Target protein degradation compounds, their anti-tumor use, their intermediates and use of intermediates” (ShanghaiTech University, priority 2018, dated 2025).
# Test system: CDK4/6 protein
# Test: Western-blot determination of CDK4/6 protein degradation (DC50) in T-47D cells
# Assay type: cell-based, human
# Settings: 24 h drug treatment, read-out: DC50(nM)/T-47D cell line
row,SMILES,DC50 [nM]
1,"CC(=O)c1c(C)c2cnc(Nc3ccc(N4CCN(C(=O)CCCCSc5cccc6c5C(=O)N(C5CCC(=O)NC5=O)C6=O)CC4)cn3)nc2n(C2CCCC2)c1=O (centres unmarked) [SIAIS184088, 4-((5-(4-(6-((6-acetyl-8-cyclopentyl-5-methyl-7-oxo-7,8-dihydropyrido[2,3-d]pyrimidin-2-yl)amino)pyridin-3-yl)piperazin-1-yl)-5-oxopentyl)thio)-2-(2,6-dioxopiperidin-3-yl)isoindoline-1,3-dione]",1 to 10
2,"CC(=O)c1c(C)c2cnc(Nc3ccc(N4CCN(C(=O)CCCCCSc5cccc6c5C(=O)N(C5CCC(=O)NC5=O)C6=O)CC4)cn3)nc2n(C2CCCC2)c1=O (centres unmarked) [SIAIS184089, 4-((6-(4-(6-((6-acetyl-8-cyclopentyl-5-methyl-7-oxo-7,8-dihydropyrido[2,3-d]pyrimidin-2-yl)amino)pyridin-3-yl)piperazin-1-yl)-6-oxohexyl)thio)-2-(2,6-dioxopiperidin-3-yl)isoindoline-1,3-dione]",1 to 10
3,"CC(=O)c1c(C)c2cnc(Nc3ccc(N4CCN(C(=O)CCCCCCSc5cccc6c5CN(C5CCC(=O)NC5=O)C6=O)CC4)cn3)nc2n(C2CCCC2)c1=O (centres unmarked) [SIAIS219055, 3-(4-((7-(4-(6-((6-acetyl-8-cyclopentyl-5-methyl-7-oxo-7,8-dihydropyrido[2,3-d]pyrimidin-2-yl)amino)pyridin-3-yl)piperazin-1-yl)-7-oxoheptyl)thio)-1-oxoisoindolin-2-yl)piperidine-2,6-dione]",< 1
4,"CC(=O)c1c(C)c2cnc(Nc3ccc(N4CCN(C(=O)COCCOCCSc5cccc6c5C(=O)N(C5CCC(=O)NC5=O)C6=O)CC4)cn3)nc2n(C2CCCC2)c1=O (centres unmarked) [SIAIS219059, 4-((2-(2-(2-(4-(6-((6-acetyl-8-cyclopentyl-5-methyl-7-oxo-7,8-dihydropyrido[2,3-d]pyrimidin-2-yl)amino)pyridin-3-yl)piperazin-1-yl)-2-oxoethoxy)ethoxy)ethyl)thio)-2-(2,6-dioxopiperidin-3-yl)isoindoline-1,3-dione]",10 to 50

# Other lines, results leading:
row,DC50 [nM],SMILES
1,< 1,"CC(=O)c1c(C)c2cnc(Nc3ccc(N4CCN(C(=O)CSc5cccc6c5CN(C5CCC(=O)NC5=O)C6=O)CC4)cn3)nc2n(C2CCCC2)c1=O (centres unmarked) [SIAIS219051, 3-(4-((2-(4-(6-((6-acetyl-8-cyclopentyl-5-methyl-7-oxo-7,8-dihydropyrido[2,3-d]pyrimidin-2-yl)amino)pyridin-3-yl)piperazin-1-yl)-2-oxoethyl)thio)-1-oxoisoindolin-2-yl)piperidine-2,6-dione]"
2,< 1,"CC(=O)c1c(C)c2cnc(Nc3ccc(N4CCN(C(=O)CCSc5cccc6c5CN(C5CCC(=O)NC5=O)C6=O)CC4)cn3)nc2n(C2CCCC2)c1=O (centres unmarked) [SIAIS219052, 3-(4-((3-(4-(6-((6-acetyl-8-cyclopentyl-5-methyl-7-oxo-7,8-dihydropyrido[2,3-d]pyrimidin-2-yl)amino)pyridin-3-yl)piperazin-1-yl)-3-oxopropyl)thio)-1-oxoisoindolin-2-yl)piperidine-2,6-dione]"
3,< 1,"CC(=O)c1c(C)c2cnc(Nc3ccc(N4CCN(C(=O)CCCSc5cccc6c5CN(C5CCC(=O)NC5=O)C6=O)CC4)cn3)nc2n(C2CCCC2)c1=O (centres unmarked) [SIAIS219053, 3-(4-((4-(4-(6-((6-acetyl-8-cyclopentyl-5-methyl-7-oxo-7,8-dihydropyrido[2,3-d]pyrimidin-2-yl)amino)pyridin-3-yl)piperazin-1-yl)-4-oxobutyl)thio)-1-oxoisoindolin-2-yl)piperidine-2,6-dione]"
4,< 1,"CC(=O)c1c(C)c2cnc(Nc3ccc(N4CCN(C(=O)CCCCCSc5cccc6c5CN(C5CCC(=O)NC5=O)C6=O)CC4)cn3)nc2n(C2CCCC2)c1=O (centres unmarked) [SIAIS219054, 3-(4-((6-(4-(6-((6-acetyl-8-cyclopentyl-5-methyl-7-oxo-7,8-dihydropyrido[2,3-d]pyrimidin-2-yl)amino)pyridin-3-yl)piperazin-1-yl)-6-oxohexyl)thio)-1-oxoisoindolin-2-yl)piperidine-2,6-dione]"
